Measured values as given in patent publication US11739318B1, “Modified biosensors and biocatalysts and methods of use” (priority 2017, dated 2023).

How the values were obtained:
PcaU1.2 = test: Specificity evaluation of PcaU1.2 sensor against similar aromatic molecules; assay type: cell-based, P. putida; settings: relative to PCA response
Protocol: For specificity evaluation of the biosensor, PcaU1.2 was tested against molecules with similar functional groups, namely benzoate, 4-hydroxybenzoate (4HB), and catechol. The tested molecules were relatively smaller than PCA, to eliminate any rejection of the molecule from the binding pocket due to steric hindrance.

PobR-DM [1] = test: Whole cell biosensing of 4HB and benzoate with PobR-DM sensor plasmid; assay type: cell-based; settings: P. putida with pPobR
Protocol: Whole cell biosensing of 4HB and benzoate: For 4HB sensing activity of the whole cell biosensor, a small scoop of pPobR transformed P. putida cells from a streaked plate or a glycerol stock was grown overnight as a seed culture. The overnight saturated seed culture was then diluted 100-fold in fresh growth medium, grown for 5-6 h at 30° C. to achieve an OD600 of ˜0.6, then distributed in deep 96-well blocks in a volume of 300-500 μL and induced with varying concentrations of 4HB or benzoate. The cultures were grown overnight (14-16 h) under vigorous shaking in a deep-well shaker (Taitec BioShakerM-BR-022UP). The cultures were diluted 100-fold in phosphate-buffered saline (PBS) with 1% sucrose and analyzed using an LSR II flow cytometer (BD Biosciences) or Accuri C6 flow cytometer (BD Biosciences) with standard settings for measurement of GFP fluorescence (ex 488 nm, em ˜530/30 nm). The arithmetic mean fluorescence value of ˜100,000 cells tightly gated based on forward and side scatter (FSC vs SSC) was used for a dose-response plot. Same protocol was followed for comparison of UbiC clones.

UbiC = UbiC (Escherichia coli, UniProt P26602); settings: cited from earlier work
Chain of UbiC (P26602 whole entry): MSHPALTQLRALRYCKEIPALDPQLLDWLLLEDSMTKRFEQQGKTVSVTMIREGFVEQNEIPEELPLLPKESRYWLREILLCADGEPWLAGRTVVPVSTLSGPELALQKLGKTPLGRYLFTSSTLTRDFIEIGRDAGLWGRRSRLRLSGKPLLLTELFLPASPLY

PobR-DM [2] = settings: protocatechuate only at 1000-fold greater concentration than 4HB; cited from earlier work

SMILES: O=C(O)c1ccc(O)cc1 [4HB, 4-hydroxybenzoic acid]
- activation of the PcaU1.2 sensor (PcaU1.2): Low but measurable activation

SMILES: O=C(O)c1ccccc1 [benzoate]
- activation of the PcaU1.2 sensor (PcaU1.2): Low but measurable activation
- response of the whole cell 4HB biosensor (PobR-DM [1]): did not show any response
- Ki (UbiC; inhibitor of UbiC): > 3 mM
- affinity weaker / Kp higher than 4HB (UbiC; product inhibition of UbiC): 1000 fold

SMILES: Oc1ccccc1O [catechol]
- activation of the PcaU1.2 sensor (PcaU1.2): a signal that was an appreciable fraction of PCA response

SMILES: O=[N+]([O-])c1ccc(O)cc1 [p-nitrophenol]
- response of the PobR-DM sensor in E. coli (PobR-DM [2]): does not respond

SMILES: O=C(O)c1ccc(O)c(O)c1 [protocatechuate, 3,4-dihydroxybenzoate]
- response of the PobR-DM sensor in E. coli (PobR-DM [2]): very weakly responds
